Data reported in patent publication US20180213771A1, “COMPOSITION, METHOD FOR PRODUCING COMPOSITION, AND PESTICIDE COMPOSITION” (Sumitomo Chemical Company, Limited, priority 2015, published 2018).

experiment: Water solubility of the agrochemical active compound alone at 25° C.; format: physicochemical

| Compound | water solubility |
| --- | --- |
| CC1CC(C)(C)c2cccc(NC(=O)c3cn(C)nc3C(F)F)c21 (centres unmarked) [agrochemical active compound A, N-(1,1,3-trimethylindan-4-yl)-1-methyl-3-difluoromethylpyrazole-4-carboxylic acid amide] | about 20 ppm |
| CCS(=O)(=O)c1cccnc1-c1nc2cc(S(=O)(=O)C(F)(F)F)ccc2o1 [agrochemical active compound B, 2-[3-(Ethanesulfonyl)pyridin-2-yl]-5-(trifluoromethanesulfonyl)benzoxazole] | about 6 ppm |
| Cc1cccc(-n2nnn(C)c2=O)c1COc1ccn(-c2ccc(Cl)cc2)n1 [agrochemical active compound C, 1-[2-({[1-(4-Chlorophenyl)-H-pyrazol-3-yl]oxy}methyl)-3-methylphenyl]-4-methyl-5-oxo-4,5-dihydro-1H-tetrazole] | about 0.03 ppm |
| CCNc1nc(CC)c(C(=O)NC(C#N)c2cccs2)s1 (centres unmarked) [ethaboxam, reference compound] | about 5 ppm |
| C#CCN1C(=O)COc2cc(F)c(N3C(=O)C4=C(CCCC4)C3=O)cc21 [flumioxazin, reference compound] | about 2 ppm |
